Toxic doses and inconclusive results are not listed. No stated cut-off is given here; in the data, active means T/C of 150% or more; inactive means T/C below 125%.
Tested on: L1210 leukemia ip in BDF1 mice, survival T/C
Assay: NCI In Vivo Anticancer Drug Screen. Data for tumor model L1210 Leukemia (intraperitoneal) in B6D2F1 (BDF1) mice
Conditions: endpoint: mean survival time, higher = longer survival
How it was run: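 Read-out is survival time, reported as the treated-group measurement over the vehicle-control measurement.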

[1] = dose: 100.0 mg/kg/injection, schedule: Q01DX001 (ip), vehicle: saline
[2] = dose: 200.0 mg/kg/injection, schedule: Q01DX001 (ip), vehicle: saline
[3] = dose: 400.0 mg/kg/injection, schedule: Q01DX001 (ip), vehicle: saline

Measured: T/C

CC(=O)C(C#N)c1c(C)cc(C)cc1C (stereo unspecified)
inactive: dose: 37.5 mg/kg/injection, schedule: Q04DX003 (ip), vehicle: saline 97 % of control | dose: 75.0 mg/kg/injection, schedule: Q01DX001 (ip), vehicle: saline 97 % of control | dose: 75.0 mg/kg/injection, schedule: Q04DX003 (ip), vehicle: saline 92 % of control | dose: 150.0 mg/kg/injection, schedule: Q01DX001 (ip), vehicle: saline 105 % of control | dose: 150.0 mg/kg/injection, schedule: Q04DX003 (ip), vehicle: saline 96 % of control

N=C(N)SCc1ccc([N+](=O)[O-])cc1
inactive: [1] 103 % of control | [2] 97 % of control

CC(C)(C)CC(C)(C)N=Cc1ccccc1
inactive: [1] 98 % of control | [2] 105 % of control | [3] 88 % of control

COc1cc2c(cc1NC(C)=O)C(=O)CCCC2
inactive: dose: 50.0 mg/kg/injection, schedule: Q01DX009 (ip), vehicle: other 92 % of control | dose: 100.0 mg/kg/injection, schedule: Q01DX009 (ip), vehicle: other 95 % of control | dose: 200.0 mg/kg/injection, schedule: Q01DX009 (ip), vehicle: other 92 % of control

C#CC(OC(=O)NC(CCSC)C(=O)OC)(c1ccccc1)c1ccccc1 (stereo unspecified)
inactive: dose: 100.0 mg/kg/injection, schedule: Q01DX001 (ip), vehicle: saline with Tween-80 99 % of control | dose: 200.0 mg/kg/injection, schedule: Q01DX001 (ip), vehicle: saline with Tween-80 99 % of control

CCCc1nc2c(=O)[nH]cnc2o1
inactive: dose: 100.0 mg/kg/injection, schedule: Q04DX003 (ip), vehicle: saline with Tween-80 89 % of control | dose: 200.0 mg/kg/injection, schedule: Q04DX003 (ip), vehicle: saline with Tween-80 95 % of control | dose: 400.0 mg/kg/injection, schedule: Q04DX003 (ip), vehicle: saline with Tween-80 101 % of control

CCOC(=O)C1(C)CCN(C)C1=O (stereo unspecified)
inactive: [1] 96 % of control | [2] 96 % of control | [3] 96 % of control

CCC1(C)C(=O)N(Br)C(=O)N1Br (stereo unspecified)
inactive: dose: 50.0 mg/kg/injection, schedule: Q01DX009 (ip), vehicle: saline 91 % of control | dose: 50.0 mg/kg/injection, schedule: Q04DX003 (ip), vehicle: saline 100 % of control | dose: 100.0 mg/kg/injection, schedule: Q01DX001 (ip), vehicle: Klucel (hydroxypropylcellulose) (HPC) 106 % of control | dose: 100.0 mg/kg/injection, schedule: Q01DX009 (ip), vehicle: saline 95 % of control | dose: 100.0 mg/kg/injection, schedule: Q04DX003 (ip), vehicle: saline 105 % of control | dose: 200.0 mg/kg/injection, schedule: Q01DX001 (ip), vehicle: Klucel (hydroxypropylcellulose) (HPC) 102 % of control | dose: 200.0 mg/kg/injection, schedule: Q01DX009 (ip), vehicle: saline 95 % of control | dose: 200.0 mg/kg/injection, schedule: Q04DX003 (ip), vehicle: saline 97 % of control

COc1ccc(N=CN(C)C)cc1
inactive: dose: 50.0 mg/kg/injection, schedule: Q01DX001 (ip), vehicle: saline 100 % of control | [1] 96 % of control

C=CS(=O)(=O)CCOc1ccc(Cl)cc1Cl
inactive: dose: 100.0 mg/kg/injection, schedule: Q01DX009 (ip), vehicle: Klucel (hydroxypropylcellulose) (HPC) 96 % of control | dose: 200.0 mg/kg/injection, schedule: Q01DX009 (ip), vehicle: Klucel (hydroxypropylcellulose) (HPC) 95 % of control

CCOc1ccc(NC(C)=O)cc1
inactive: dose: 100.0 mg/kg/injection, schedule: Q04DX003 (ip), vehicle: Klucel (hydroxypropylcellulose) (HPC) 96 % of control | dose: 200.0 mg/kg/injection, schedule: Q04DX003 (ip), vehicle: Klucel (hydroxypropylcellulose) (HPC) 104 % of control | dose: 400.0 mg/kg/injection, schedule: Q04DX003 (ip), vehicle: Klucel (hydroxypropylcellulose) (HPC) 115 % of control

Source: PubChem BioAssay AID248 (DTP/NCI, 2004)
